The values that follow come from patent US12257292B2, “Enhanced delivery of antioxidants for treatment of central nervous system disorders involving oxidative stress” (Beyond Barriers Therapeutics, Inc., priority 2017, dated 2025).

The subject of data set [1] is traumatic brain injury. The following applies: more than 20 preclinical studies; cited from earlier work.
Data set [2] concerns traumatic brain injury. The following applies: cited from earlier work.
Data set [3] relates to blast induced mild traumatic brain injury. The note with it: orally administered, cited from earlier work.
For data set [4] the following is noted: orally administered; cited from earlier work.
The next data set concerns glutathione in the brain. Kind of data set: Glutathione (GSH) levels in whole-brain homogenates by LC/MS after intranasal or oral NAC. The data set is classed as in vivo, male Sprague-Dawley rats. The note with it: for glutathione in the brain compared to vehicle control (IN PBS): 0.5 hours and 2 hours following administration. As for the experimental part:
(§1) In this example, a study was conducted to evaluate the pharmacokinetics of N-acetyl cysteine administered in an intranasal formulation. The study also evaluated the effectiveness on intranasally administered NAC to increase glutathione concentration in the brain.
(§2) C13-labelled N-acetyl L-cysteine (purchased from Cambridge Isotope Laboratories) was used to prepare formulations in phosphate-buffered saline (PBS) for the study. The subjects for the study were male Sprague-Dawley rats weighing approximately 250 grams, and 39 animals were separated into four groups, as shown in Table 1. The animals in the study groups were administered either an intranasal (IN) dose or an oral (PO) dose of N-acetyl cysteine via gavage, as shown in Table 1. Group 1 and group 2 were administered one 20 μl, intranasal injection. Group 3 was administered a single oral dose of 500 μL. Group 4 was administered two separate 10 μL intranasal injections (one per nostril).
The animals were fasted the night prior to the study and were anesthetized using a cocktail of ketamine/xylazine before administration of the study formulation. The rats were left on their sides for 15 minutes after administration of the study formulation. The animals were observed post administration, and at least once a day, more if deemed necessary, during the pre-treatment and treatment periods for mortality and morbidity. In particular, signs of ill health were based on body weight loss, change in appetite, and behavioral changes such as altered gait, lethargy and gross manifestations of stress.
Three animals from each Group were sacrificed at the established time points (0.5 hour, 1.0 hour and 2.0 hour), and whole brains from the sacrificed animals were collected for analysis. 3 animals from Group 3 were also sacrificed pre-dose and analyzed. The brain samples were stored at −80° C. freezer until sample analysis. Homogenates of the brain samples were prepared and analyzed, and glutathione (GSH) levels in the brain samples were measured by LC/MS.

Details of data set [5]: species or system male Sprague-Dawley rats. The note with it: rat, in vivo, 20 mg/kg. As for the experimental part: as §1
as §2, with “nostril). […]” for “nostril).”
Three animals from each Group were sacrificed at the established time points (0.5 hour, 1.0 hour and 2.0 hour), and whole brains from the sacrificed animals were collected for analysis. 3 animals from Group 3 were also sacrificed pre-dose and analyzed. […] Homogenates of the brain samples were prepared and analyzed, and glutathione (GSH) levels in the brain samples were measured by LC/MS.

As for erythropoietin, the “outcome following traumatic brain injury” value with traumatic brain injury [1] is reported as “improves outcome”. Besides, the “increase of the incidence of deep venous thrombosis of the lower limbs” value in the data set on traumatic brain injury [2] (in vivo) is reported as “did not”. Besides, the “number of patients with severe neurological dysfunction (GOS-E level 1-4)” value in the data set on traumatic brain injury [2] (large multi-center randomized controlled trial) is recorded as “did not reduce”.
In the case of `CC(=O)N[C@@H](CS)C(=O)O` [NAC, N-acetylcysteine], in data set [3] (81 active duty service members), the “severity and resolution of sequelae of blast induced mild traumatic brain injury” value is given as “beneficial effects”. In data set [3], the “reducing the symptoms of mild-moderate traumatic brain injury in human patients” value is listed as “effective”. Besides, in data set [4], the adverse effects result is “may cause nausea, vomiting and diarrhea”. Also, in the data set with glutathione in the brain (intranasal 20 mg/kg vs oral (PO) 20 mg/kg, rat whole brain, FIG. 1), the “raising glutathione levels in the brain, intranasal compared with oral NAC” value is “as effective as oral NAC”. In the data set with glutathione in the brain (intranasal 20 mg/kg, 2 hour point, p=0.033, Student's T-test, planned comparison), the “increased GSH concentration in the brain, IN NAC vs IN PBS group” value is reported as “statistically significant”. For the same compound, the “glutathione in the brain compared to vehicle control (IN PBS)” value with glutathione in the brain (intranasal NAC 20 mg/kg) and in the data set on glutathione in the brain (oral NAC 20 mg/kg) was “Clear trends for increased glutathione” in each case. The “concentration of isotope labeled NAC in brain tissue following administration” value in data set [5] is reported as “did not detect an increase”.
